What was measured:
[1] = xn = mol fraction of the nth substance listed; settings: Ring tensiometer
[2] = Ring tensiometer

CC(C)O [propan-2-ol] + C[S+](C)[O-]
[1], x1 = 1
Settings	surface tension liquid-gas [mN/m]
298.15 K	21.15
308.15 K	20.29
318.15 K	19.53
328.15 K	18.51

CC(C)O [propan-2-ol]
[2]
Settings	surface tension liquid-gas [mN/m]
298.15 K	21.15
308.15 K	20.29
318.15 K	19.53
328.15 K	18.51

C[S+](C)[O-] [dimethyl sulfoxide] + CO
surface tension liquid-gas [mN/m], [1]
Settings	298.15 K	308.15 K	318.15 K	328.15 K
x2 = 0	42.43	41.3	40.17	39.08
x2 = 0.077	41.31	40.2	39.15	38.06
x2 = 0.154	40.03	38.95	37.91	36.84
x2 = 0.231	38.59	37.54	36.58	35.55
x2 = 0.308	37.1	36.16	35.2	34.25
x2 = 0.384	35.6	34.69	33.78	32.84
x2 = 0.462	34.07	33.18	32.31	31.45
x2 = 0.538	32.46	31.62	30.79	29.96
x2 = 0.615	30.84	30.03	29.22	28.41
x2 = 0.693	29.2	28.38	27.56	26.79
x2 = 0.769	27.5	26.69	25.84	24.96
x2 = 0.846	25.77	24.89	24.2	23.31
x2 = 0.9	24.56	23.67	22.88	21.94

CO [methanol] + C[S+](C)[O-]
[1], x1 = 1
Settings	surface tension liquid-gas [mN/m]
298.15 K	22.24
308.15 K	21.41
318.15 K	20.53
328.15 K	19.54

CO [methanol]
[2]
Settings	surface tension liquid-gas [mN/m]
298.15 K	22.24
308.15 K	21.41
318.15 K	20.53
328.15 K	19.54

CCO [ethanol] + C[S+](C)[O-]
[1], x1 = 1
Settings	surface tension liquid-gas [mN/m]
298.15 K	21.66
308.15 K	21.01
318.15 K	20.19
328.15 K	19.23
